# Data published in patent US8759256B2, “Herbicide composition comprising herbicide compound in acid form and acidifying agent” (priority 2001, dated 2014).
# What was measured:
# [1] = cited from earlier work; for pKas: Table 1, acidic herbicide; for pKa: imidazolinone acids
# pinto bean = experiment: greenhouse visual injury rating, Examples 9-10, pinto bean; format: in vivo; conditions: Two Week
# Source text: (§1) Each treatment in the experiment was replicated three times. An untreated control was also included in the experiment.
# (§2) These treatments were compared to PCC-1190 and PCC-1189 without the addition of an acidifying agent, a standard imidazolinone acid formulation (PURSUIT and SCEPTER), and an untreated control.
# (§3) For the experiments, greenhouse flats 26 cm by 6 cm deep were filled with Metro Mix 350 potting soil. The soil was pre-wetted before filling the flats. Six furrows were pressed into the soil in each flat using a custom designed form. Corn, tame oats, velvet leaf (not used in Example 10), wheat, pinto beans, and sunflower were planted in each tray. One species was planted in each of the six rows in each flat. Five seeds were planted in each row of corn, pinto bean, and sunflower. Six seeds were planted in each row of tame oat and wheat. Because velvet leaf seeds were so small, the seeds were sprinkled in each row and the number of such seeds were not counted. Each flat was covered with 2 cm of Metro Mix 350 potting soil and placed in the greenhouse. Greenhouse conditions were 28/20 C day/night temperatures and 16/8 h day/night periods. Light was supplemented with 400 W sodium halide lights. The plants were allowed to germinate and grow in the greenhouse for 2 weeks and then treated. Treatments were mixed using serial dilutions. Each dilution reduced the herbicide rate by one half. All acidifying agents (e.g., PCC-I174, LI-136, sulfuric acid, and phosphoric acid) were calculated and mixed to provide acid concentrations of 0.9%.
# (§4) At the time of treatment, crops were at the following stages: corn—2 to 3 lf, tame oat—2 to 3 lf, velvet leaf 2 if (not used in Example 10), pinto bean—2-3 lf, wheat—4 to 5 lf, and sunflower-2 lf. Plants were treated using a greenhouse track sprayer equipped with an 8001E nozzle and calibrated to deliver 140 L ha-1 at the height of the crop canopy. Each treatment was simultaneously applied to three trays of plants, one for each replicate. After treatment, the plants were left in the head house to dry and then transferred to the greenhouse. Plants in each treatment were evaluated visually for injury 1 week and 2 weeks after treatment.
# (§5) The injury caused by the herbicide treatment was rated visually. […] All the plants of each species in each replication were given a single rating. A rating of 0=no injury—the plants look the same as the untreated. A rating of 100=dead—usually highly necrotic, brown and no chance of producing seed.
# (§6) The ingredients of the herbicide compositions as applied are listed in the following tables, and were diluted with water and used at the rates indicated for herbicide ingredients and acidifying agents.
# tame oat = experiment: greenhouse visual injury rating, Examples 9-10, tame oat; format: in vivo; conditions: Two Week
# Source text: as §1, §2, §3, §4, §5, §6
# corn = experiment: greenhouse visual injury rating, Examples 9-10, corn; format: in vivo; conditions: Two Week
# Source text: as §1, §2, §3, §4, §5, §6
# wheat = experiment: greenhouse visual injury rating, Examples 9-10, wheat; format: in vivo; conditions: Two Week
# Source text: as §1, §2, §3, §4, §5, §6
# sunflower = experiment: greenhouse visual injury rating, Examples 9-10, sunflower; format: in vivo; conditions: Two Week
# Source text: as §1, §2, §3, §4, §5, §6
# [2] = PCC-1189 0.031 LB AE/A + PHOSPHORIC ACID 2 % V/V
# [3] = PCC-1189 0.245 3 AE/A + PHOSPHORIC ACID 2 V/V
# [4] = PCC-1189 0.49 3 AE/A + PHOSPHORIC ACID 2 V/V
# [5] = PCC-1189 .0155 LB AE/A + PHOSPHORIC ACID 2 % V/V
# [6] = PCC-1189 .0613 LB AE/A + PHOSPHORIC ACID 2 % V/V
# [7] = PCC-1189 .1225 LB AE/A + PHOSPHORIC ACID 2 % V/V
# [8] = PCC-1189 0.031 LB AE/A + SULFURIC ACID 2 % V/V
# [9] = PCC-1189 0.245 LB AE/A + SULFURIC ACID 2 % V/V
# [10] = PCC-1189 0.49 LB AE/A + SULFURIC ACID 2 % V/V
# [11] = PCC-1189 .0155 LB AE/A + SULFURIC ACID 2 % V/V
# [12] = PCC-1189 .0613 LB AE/A + SULFURIC ACID 2 % V/V
# [13] = PCC-1189 .1225 LB AE/A + SULFURIC ACID 2 % V/V
compound,measurement,setting,value
"O=C(O)CCCOc1ccc(Cl)cc1Cl [2,4-DB]",pKas,[1],4.8
CC(C)C1(C)N=C(c2nc3ccccc3cc2C(=O)O)NC1=O (centres unmarked) [Imazaquin],pKas,[1],3.8
same,pKa,[1],approximately 3.8
CCc1cnc(C2=NC(C)(C(C)C)C(=O)N2)c(C(=O)O)c1 (centres unmarked) [Imazethapyr],pKas,[1],3.9
same,pKa,[1],approximately 3.9
O=P(O)(O)O [PHOSPHORIC ACID],"injury rated visually (0=no injury, 100=dead), Pinto Bean",pinto bean; [2],20.0
same,"injury rated visually (0=no injury, 100=dead), Pinto Bean",pinto bean; [3],30.0
same,"injury rated visually (0=no injury, 100=dead), Pinto Bean",pinto bean; [4],30.0
same,"injury rated visually (0=no injury, 100=dead), Pinto Bean",pinto bean; [5],10.0
same,"injury rated visually (0=no injury, 100=dead), Pinto Bean",pinto bean; [6],30.0
same,"injury rated visually (0=no injury, 100=dead), Pinto Bean",pinto bean; [7],25.0
same,"injury rated visually (0=no injury, 100=dead), Tame Oat",tame oat; [2],0.0
same,"injury rated visually (0=no injury, 100=dead), Tame Oat",tame oat; [3],0.0
same,"injury rated visually (0=no injury, 100=dead), Tame Oat",tame oat; [4],0.0
same,"injury rated visually (0=no injury, 100=dead), Tame Oat",tame oat; [5],0.0
same,"injury rated visually (0=no injury, 100=dead), Tame Oat",tame oat; [6],0.0
same,"injury rated visually (0=no injury, 100=dead), Tame Oat",tame oat; [7],0.0
same,"injury rated visually (0=no injury, 100=dead), Corn",corn; [2],10.0
same,"injury rated visually (0=no injury, 100=dead), Corn",corn; [3],10.0
same,"injury rated visually (0=no injury, 100=dead), Corn",corn; [4],20.0
same,"injury rated visually (0=no injury, 100=dead), Corn",corn; [5],10.0
same,"injury rated visually (0=no injury, 100=dead), Corn",corn; [6],15.0
same,"injury rated visually (0=no injury, 100=dead), Corn",corn; [7],10.0
same,"injury rated visually (0=no injury, 100=dead), Wheat",wheat; [2],0.0
same,"injury rated visually (0=no injury, 100=dead), Wheat",wheat; [3],0.0
same,"injury rated visually (0=no injury, 100=dead), Wheat",wheat; [4],0.0
same,"injury rated visually (0=no injury, 100=dead), Wheat",wheat; [5],0.0
same,"injury rated visually (0=no injury, 100=dead), Wheat",wheat; [6],0.0
same,"injury rated visually (0=no injury, 100=dead), Wheat",wheat; [7],0.0
same,"injury rated visually (0=no injury, 100=dead), Sunflower",sunflower; [2],50.0
same,"injury rated visually (0=no injury, 100=dead), Sunflower",sunflower; [3],60.0
same,"injury rated visually (0=no injury, 100=dead), Sunflower",sunflower; [4],50.0
same,"injury rated visually (0=no injury, 100=dead), Sunflower",sunflower; [5],50.0
same,"injury rated visually (0=no injury, 100=dead), Sunflower",sunflower; [6],40.0
same,"injury rated visually (0=no injury, 100=dead), Sunflower",sunflower; [7],50.0
Nc1c(Cl)c(Cl)nc(C(=O)O)c1Cl [Picloram],pKas,[1],2.3
O=S(=O)(O)O [SULFURIC ACID],"injury rated visually (0=no injury, 100=dead), Pinto Bean",pinto bean; [8],10.0
same,"injury rated visually (0=no injury, 100=dead), Pinto Bean",pinto bean; [9],20.0
same,"injury rated visually (0=no injury, 100=dead), Pinto Bean",pinto bean; [10],30.0
same,"injury rated visually (0=no injury, 100=dead), Pinto Bean",pinto bean; [11],10.0
same,"injury rated visually (0=no injury, 100=dead), Pinto Bean",pinto bean; [12],0.0
same,"injury rated visually (0=no injury, 100=dead), Pinto Bean",pinto bean; [13],10.0
same,"injury rated visually (0=no injury, 100=dead), Tame Oat",tame oat; [8],0.0
same,"injury rated visually (0=no injury, 100=dead), Tame Oat",tame oat; [9],0.0
same,"injury rated visually (0=no injury, 100=dead), Tame Oat",tame oat; [10],10.0
same,"injury rated visually (0=no injury, 100=dead), Tame Oat",tame oat; [11],0.0
same,"injury rated visually (0=no injury, 100=dead), Tame Oat",tame oat; [12],0.0
same,"injury rated visually (0=no injury, 100=dead), Tame Oat",tame oat; [13],0.0
same,"injury rated visually (0=no injury, 100=dead), Corn",corn; [8],20.0
same,"injury rated visually (0=no injury, 100=dead), Corn",corn; [9],20.0
same,"injury rated visually (0=no injury, 100=dead), Corn",corn; [10],20.0
same,"injury rated visually (0=no injury, 100=dead), Corn",corn; [11],10.0
same,"injury rated visually (0=no injury, 100=dead), Corn",corn; [12],10.0
same,"injury rated visually (0=no injury, 100=dead), Corn",corn; [13],10.0
same,"injury rated visually (0=no injury, 100=dead), Wheat",wheat; [8],0.0
same,"injury rated visually (0=no injury, 100=dead), Wheat",wheat; [9],0.0
same,"injury rated visually (0=no injury, 100=dead), Wheat",wheat; [10],10.0
same,"injury rated visually (0=no injury, 100=dead), Wheat",wheat; [11],0.0
same,"injury rated visually (0=no injury, 100=dead), Wheat",wheat; [12],0.0
same,"injury rated visually (0=no injury, 100=dead), Wheat",wheat; [13],0.0
same,"injury rated visually (0=no injury, 100=dead), Sunflower",sunflower; [8],30.0
same,"injury rated visually (0=no injury, 100=dead), Sunflower",sunflower; [9],60.0
same,"injury rated visually (0=no injury, 100=dead), Sunflower",sunflower; [10],80.0
same,"injury rated visually (0=no injury, 100=dead), Sunflower",sunflower; [11],30.0
same,"injury rated visually (0=no injury, 100=dead), Sunflower",sunflower; [12],40.0
same,"injury rated visually (0=no injury, 100=dead), Sunflower",sunflower; [13],40.0
Imazamethbenz,pKas,[1],2.9
same,pKa,[1],approximately 2.9
